Experimental data published in patent US9113629B2, “4-amino-6-(4-substituted-phenyl)-picolinates and 6-amino-2-(4-substituted-phenyl)-pyrimidine-4-carboxylates and their use as herbicides” (DOW AGROSCIENCES LLC, priority 2013, dated 2015).

System: Key Grass and Sedge Weeds as well as Grass Crops
Experiment: Post-emergent Test II herbicidal activity (Table 6)
Format: in vivo
Settings: post-emergence, 336 h, CYPES: yellow nutsedge (Cyperus esculentus), 70 g ai/ha, read-out: Visual Growth Reduction (%) 14 Days After Application, CYPES
Method in brief: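 Greenhouse-grown plants at first or second true leaf stage were sprayed post-emergence with compound in acetone/DMSO-based aqueous spray containing crop oil concentrate and surfactant, at 187 L/ha, highest rate plus ½× to 1/16× dilutions. After 14 d, injury was scored visually versus untreated plants, 0 (none) to 100% (complete kill).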

Compound | pest or weed control at 70 g/ha
COC(=O)c1nc(-c2ccccc2)c(F)c(N)c1Cl [Compound 181] | 95 to 100%

Same assay, conditions: post-emergence, 336 h, CYPES: yellow nutsedge (Cyperus esculentus), 140 g ai/ha, read-out: Visual Growth Reduction (%) 14 Days After Application, CYPES

Compound | pest or weed control at 140 g/ha
COC(=O)c1nc(-c2ccccc2)c(F)c(N)c1Cl [Compound 181] | 95 to 100%

Same assay, conditions: post-emergence, 336 h, DIGSA: crabgrass (Digitaria sanguinalis), 70 g ai/ha, read-out: Visual Growth Reduction (%) 14 Days After Application, DIGSA

Compound | pest or weed control at 70 g/ha
COC(=O)c1nc(-c2ccccc2)c(F)c(N)c1Cl [Compound 181] | 0 to 29%

Same assay, conditions: post-emergence, 336 h, DIGSA: crabgrass (Digitaria sanguinalis), 140 g ai/ha, read-out: Visual Growth Reduction (%) 14 Days After Application, DIGSA

Compound | pest or weed control at 140 g/ha
COC(=O)c1nc(-c2ccccc2)c(F)c(N)c1Cl [Compound 181] | 0 to 29%

Same assay, conditions: post-emergence, 336 h, ECHCG: barnyardgrass (Echinochloa crus-galli), 70 g ai/ha, read-out: Visual Growth Reduction (%) 14 Days After Application, ECHCG

Compound | pest or weed control at 70 g/ha
COC(=O)c1nc(-c2ccccc2)c(F)c(N)c1Cl [Compound 181] | 0 to 29%

Same assay, conditions: post-emergence, 336 h, ECHCG: barnyardgrass (Echinochloa crus-galli), 140 g ai/ha, read-out: Visual Growth Reduction (%) 14 Days After Application, ECHCG

Compound | pest or weed control at 140 g/ha
COC(=O)c1nc(-c2ccccc2)c(F)c(N)c1Cl [Compound 181] | 0 to 29%

Same assay, conditions: post-emergence, 336 h, ORYSA: rice (Oryza sativa), crop, 70 g ai/ha, read-out: Visual Growth Reduction (%) 14 Days After Application, ORYSA

Compound | pest or weed control at 70 g/ha
COC(=O)c1nc(-c2ccccc2)c(F)c(N)c1Cl [Compound 181] | 0 to 29%

Same assay, conditions: post-emergence, 336 h, ORYSA: rice (Oryza sativa), crop, 140 g ai/ha, read-out: Visual Growth Reduction (%) 14 Days After Application, ORYSA

Compound | pest or weed control at 140 g/ha
COC(=O)c1nc(-c2ccccc2)c(F)c(N)c1Cl [Compound 181] | 0 to 29%

Same assay, conditions: post-emergence, 336 h, SETFA: giant foxtail (Setaria faberi), 70 g ai/ha, read-out: Visual Growth Reduction (%) 14 Days After Application, SETFA

Compound | pest or weed control at 70 g/ha
COC(=O)c1nc(-c2ccccc2)c(F)c(N)c1Cl [Compound 181] | 0 to 29%

Same assay, conditions: post-emergence, 336 h, SETFA: giant foxtail (Setaria faberi), 140 g ai/ha, read-out: Visual Growth Reduction (%) 14 Days After Application, SETFA

Compound | pest or weed control at 140 g/ha
COC(=O)c1nc(-c2ccccc2)c(F)c(N)c1Cl [Compound 181] | 0 to 29%

Same assay, conditions: post-emergence, 336 h, SORVU: grain sorghum (Sorghum vulgare), 70 g ai/ha, read-out: Visual Growth Reduction (%) 14 Days After Application, SORVU

Compound | pest or weed control at 70 g/ha
COC(=O)c1nc(-c2ccccc2)c(F)c(N)c1Cl [Compound 181] | 0 to 29%

Same assay, conditions: post-emergence, 336 h, SORVU: grain sorghum (Sorghum vulgare), 140 g ai/ha, read-out: Visual Growth Reduction (%) 14 Days After Application, SORVU

Compound | pest or weed control at 140 g/ha
COC(=O)c1nc(-c2ccccc2)c(F)c(N)c1Cl [Compound 181] | 30 to 44%

Same assay, conditions: post-emergence, 336 h, TRZSS (wheat, Triticum aestivum), crop, 70 g ai/ha, read-out: Visual Growth Reduction (%) 14 Days After Application, TRZSS

Compound | pest or weed control at 70 g/ha
COC(=O)c1nc(-c2ccccc2)c(F)c(N)c1Cl [Compound 181] | 0 to 29%

Same assay, conditions: post-emergence, 336 h, TRZSS (wheat, Triticum aestivum), crop, 140 g ai/ha, read-out: Visual Growth Reduction (%) 14 Days After Application, TRZSS

Compound | pest or weed control at 140 g/ha
COC(=O)c1nc(-c2ccccc2)c(F)c(N)c1Cl [Compound 181] | 0 to 29%

Same assay, conditions: post-emergence, 336 h, ZEAMX: maize, corn (Zea mays), crop, 70 g ai/ha, read-out: Visual Growth Reduction (%) 14 Days After Application, ZEAMX

Compound | pest or weed control at 70 g/ha
COC(=O)c1nc(-c2ccccc2)c(F)c(N)c1Cl [Compound 181] | 0 to 29%
